Assay results reported in patent US11510931B2, “Compositions and methods for treating ophthalmic conditions” (MEDICON PHARMACEUTICALS, INC., priority 2016, dated 2022).
Like-named read-outs stand apart in the source and are kept apart here.

Experiment: Ocular biodistribution of PS after topical eye drops in New Zealand white rabbits (HPLC)
Format: in vivo, rabbit
Settings: New Zealand white, rabbit, topical, topical
Procedure: Results: The above PS formulation was administered topically as eye drops to the eyes of New Zealand white rabbits. The levels of PS in ocular tissues 1 h and 3 h later were determined by HPLC. The Table below summarizes the findings:
Results: The above PS formulation was administered topically as eye drops to the eyes of New Zealand white rabbits. The levels of PS in ocular tissues at 2 h later were determined by HPLC. The table below summarizes the findings.
Results: PS in this formulation was administered topically to the eyes of New Zealand white rabbits and its biodistribution was determined as above. The Table below summarizes the findings.
Results: PS in this formulation was administered topically as eye drops to the eyes of New Zealand white rabbits. The biodistribution of PS in ocular tissues at 3 h and 6 h was determined by HPLC. The Table below summarizes the findings.
Biodistribution of PS after topical administration: PS formulated in nanoparticles as above was administered topically as eye drops to New Zealand white rabbits. The biodistribution of PS in ocular tissues at the indicated time points post administration was determined by HPLC. The Table below summarizes the findings.
Biodistribution of PS after topical administration: PS in the formulations was administered topically as eye drops to the eyes of New Zealand white rabbits. The levels of PS in ocular tissues at 0.5 h, 1 h and 3 h were determined by HPLC. The Table below summarizes the findings.
To assess the contribution of the foregoing formulations to the PK/biodistribution of PS in the ocular tissues, a solution of PS in pure propylene glycol (PG) was studied. PG is well tolerated by the eye. A 3.5% PS solution (in PG) as eye drops was administered topically to the eyes of New Zealand white rabbits and its 1-hour biodistribution was determined by HPLC. The Table summarizes the findings.

[1] = ciliary body, 5.4 % PS, Poloxamer 407 in-situ gel, 5.4% PS, read-out: PS in Ciliary body
[2] = conjunctiva, 5.4 % PS, Poloxamer 407 in-situ gel, 5.4% PS, read-out: PS in Conjunctiva
[3] = conjunctiva, topical eye drops, mPEG-PLA nanoparticles, read-out: PS in Conjunctiva
[4] = cornea, topical eye drops, mPEG-PLA nanoparticles, read-out: PS in Cornea
[5] = iris, 5.4 % PS, Poloxamer 407 in-situ gel, 5.4% PS, read-out: PS in Iris
[6] = iris, topical eye drops, mPEG-PLA nanoparticles, read-out: PS in Iris
[7] = lacrimal gland, topical eye drops, mPEG-PLA nanoparticles, read-out: PS in Lacrimal gland
[8] = lens, 5.4 % PS, Poloxamer 407 in-situ gel, 5.4% PS, read-out: PS in Lens
[9] = retina, 3 % PS, sodium alginate/Tween 80 in-situ gel, 3% PS, read-out: PS in Retina
[10] = retina, 5.4 % PS, Poloxamer 407 in-situ gel, 5.4% PS, read-out: PS in Retina
[11] = sclera, 5.4 % PS, Poloxamer 407 in-situ gel, 5.4% PS, read-out: PS in Sclera
[12] = sclera, topical eye drops, mPEG-PLA nanoparticles, read-out: PS in Sclera
[13] = vitreous, 5.4 % PS, Poloxamer 407 in-situ gel, 5.4% PS, read-out: PS in Vitreous

CCOP(=O)(OCC)OCCCCOC(=O)CC1=C(C)/C(=C/c2ccc([S+](C)[O-])cc2)c2ccc(F)cc21 (centres unmarked) [PS, phosphosulindac]
concentration at 8 h (aqueous humor, 0.4% gellan gum in-situ gel, 2.4-3% PS, read-out: PS in Aqueous humor): 0 nM
concentration at 1 h (choroid, 3.5 % PS solution (eye drops), topical eye drops, 3.5% PS solution in propylene glycol, read-out: PS in Choroid): 0 µM
concentration at 6 h (choroid, 5.4 % PS, Poloxamer 407 in-situ gel, 5.4% PS, read-out: PS in Choroid): 0 µM
concentration at 2 h (choroid, 0.5% gellan gum in-situ gel, 2.4~3% PS, read-out: PS in Choroid): 0 µM
concentration at 3 h [1]: 0 µM
concentration at 6 h [1]: 0 µM
concentration at 2 h (ciliary body, 0.5% gellan gum in-situ gel, 2.4~3% PS, read-out: PS in Ciliary body): 0 µM
concentration at 1 h (conjunctiva, 3.5 % PS solution (eye drops), topical eye drops, 3.5% PS solution in propylene glycol, read-out: PS in Conjunctiva): 3.3 µM
concentration at 3 h [2]: 5.6 µM
concentration at 6 h [2]: 10.7 µM
concentration at 0.5 h [3]: 121 µM
concentration at 1 h [3]: 80.4 µM
concentration at 2 h [3]: 16.9 µM
concentration at 8 h (cornea, 3 % PS, sodium alginate/Tween 80 in-situ gel, 3% PS, read-out: PS in Cornea): 0 nM
concentration at 1 h (cornea, 3.5 % PS solution (eye drops), topical eye drops, 3.5% PS solution in propylene glycol, read-out: PS in Cornea): 38.8 µM
concentration at 6 h (cornea, 5.4 % PS, Poloxamer 407 in-situ gel, 5.4% PS, read-out: PS in Cornea): 13.6 µM
concentration at 0.5 h [4]: 89.8 µM
concentration at 1 h [4]: 63.9 µM
concentration at 2 h [4]: 43.5 µM
concentration at 3 h [5]: 0 µM
concentration at 6 h [5]: 0 µM
concentration at 0.5 h [6]: 2.8 µM
concentration at 1 h [6]: 6.4 µM
concentration at 2 h [6]: 1.3 µM
concentration at 2 h (iris, 0.5% gellan gum in-situ gel, 2.4~3% PS, read-out: PS in Iris): 0 µM
concentration at 1 h (lacrimal gland, 3.5 % PS solution (eye drops), topical eye drops, 3.5% PS solution in propylene glycol, read-out: PS in Lacrimal gland): 0.1 µM
concentration at 0.5 h [7]: 7.5 µM
concentration at 1 h [7]: 3.5 µM
concentration at 2 h [7]: 0.6 µM
concentration at 2 h (lacrimal gland, 0.5% gellan gum in-situ gel, 2.4~3% PS, read-out: PS in Lacrimal Gland): 0 µM
concentration at 3 h [8]: 0 µM
concentration at 6 h [8]: 0 µM
concentration at 2 h (lens, 0.5% gellan gum in-situ gel, 2.4~3% PS, read-out: PS in Lens): 0 µM
concentration at 1 h [9]: 0 µM
concentration at 3 h [9]: 0 µM
concentration at 5 h (retina, 3 % PS, 5 h, sodium alginate/Tween 80 in-situ gel, 3% PS, read-out: PS in Retina): 0 nM
concentration at 8 h [9]: 0 nM
concentration at 1 h (retina, 3.5 % PS solution (eye drops), topical eye drops, 3.5% PS solution in propylene glycol, read-out: PS in Retina): 0 µM
concentration at 3 h [10]: 0 µM
concentration at 6 h [10]: 0 µM
concentration at 2 h (retina, 0.5% gellan gum in-situ gel, 2.4~3% PS, read-out: PS in Retina): 0 µM
concentration at 1 h (sclera, 3.5 % PS solution (eye drops), topical eye drops, 3.5% PS solution in propylene glycol, read-out: PS in Sclera): 0 µM
concentration at 3 h [11]: 0 µM
concentration at 6 h [11]: 0 µM
concentration at 0.5 h [12]: 32.1 µM
concentration at 1 h [12]: 17.1 µM
concentration at 2 h [12]: 4.7 µM
concentration at 2 h (sclera, 0.5% gellan gum in-situ gel, 2.4~3% PS, read-out: PS in Sclera): 0 µM
concentration at 1 h (vitreous body, 3.5 % PS solution (eye drops), topical eye drops, 3.5% PS solution in propylene glycol, read-out: PS in Vitreous body): 0 µM
concentration at 3 h (vitreous body, 3.5 % PS, topical eye drops, 3.5% PS/16% Vitamin E TPGS/mannitol/boric acid, read-out: PS in Vitreous body): 0 µM
concentration at 3 h [13]: 0 µM
concentration at 6 h [13]: 0 µM
concentration at 2 h (vitreous, 0.5% gellan gum in-situ gel, 2.4~3% PS, read-out: PS in Vitreous): 0 µM
